Source: patent publication US20110034526A1, “Benzimidazole Compounds” (Wyeth LLC, priority 2007, published 2011)

What was measured:
human LXRα = target: T1, human LXRα (Homo sapiens, UniProt Q13133); assay: Ligand-binding test procedure for human LXRα (3H T0901317 tracer, flash plates); settings: biotinylated hLXRα, tracer 3H T0901317
T1 construct: biotin (biotinylated); made in house; host or cells: E. coli (crude extract)
T1 sequence (Q13133 1-447): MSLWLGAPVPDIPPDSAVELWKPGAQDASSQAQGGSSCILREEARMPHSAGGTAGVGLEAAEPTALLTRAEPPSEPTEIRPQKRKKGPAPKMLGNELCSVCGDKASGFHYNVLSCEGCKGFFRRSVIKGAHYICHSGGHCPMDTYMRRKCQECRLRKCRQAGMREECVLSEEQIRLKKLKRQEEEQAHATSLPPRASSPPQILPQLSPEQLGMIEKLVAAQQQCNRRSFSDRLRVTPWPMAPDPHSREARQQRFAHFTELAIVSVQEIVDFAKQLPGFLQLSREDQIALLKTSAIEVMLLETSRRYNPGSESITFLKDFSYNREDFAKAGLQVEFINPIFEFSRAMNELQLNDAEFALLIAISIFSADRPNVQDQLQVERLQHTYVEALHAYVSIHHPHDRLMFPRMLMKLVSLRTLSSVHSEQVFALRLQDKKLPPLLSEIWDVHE
Description: Receptor source: E. coli extract from cells expressing biotinylated hLXRcc. Extract was made in a similar buffer as above, but with 50 mM TRIS.
Washed streptavidin and coated flash plates with wash buffer. Diluted receptor extract to give Bmax ˜4000 cpm and add to the wells. Wrapped the plates in aluminum foil and stored them at +4° C. over night.
(§1) Made a dilution series in DMSO of the test ligands. Made a 5 nM solution of the radioactive tracer in buffer. Mixed 250 μl diluted tracer with 5 μl of the test ligand from each concentration of the dilution series. Washed the receptor-coated flash plates. Added 200 μl per well of the ligand/radiolabel mixture to the receptor-coated flash plates. Wrapped the plates in aluminum foil and incubate at +4° C. over night.
Aspirated wells, and wash the flashed plates. Sealed the plate. Measured the remaining radioactivity in the plate.

human LXRβ = target: T2, human LXRβ (Homo sapiens, UniProt P55055); assay: Ligand-binding test procedure for human LXRβ (3H T0901317 tracer, flash plates)
T2 construct: biotin (biotinylated); made in house; host or cells: E. coli (crude extract)
T2 sequence (P55055 1-460): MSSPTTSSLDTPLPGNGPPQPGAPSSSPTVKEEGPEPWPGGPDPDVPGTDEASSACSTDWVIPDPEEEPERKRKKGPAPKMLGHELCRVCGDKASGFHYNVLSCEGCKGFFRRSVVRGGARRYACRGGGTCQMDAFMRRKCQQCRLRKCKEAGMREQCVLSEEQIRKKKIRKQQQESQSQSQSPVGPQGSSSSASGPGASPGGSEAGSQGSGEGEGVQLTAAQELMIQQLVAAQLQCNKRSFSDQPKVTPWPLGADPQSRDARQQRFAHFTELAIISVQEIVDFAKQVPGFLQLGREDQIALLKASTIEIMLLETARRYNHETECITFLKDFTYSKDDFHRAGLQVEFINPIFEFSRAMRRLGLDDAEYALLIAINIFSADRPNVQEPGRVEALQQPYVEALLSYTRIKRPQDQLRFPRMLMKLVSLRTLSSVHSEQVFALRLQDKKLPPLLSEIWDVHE
Description: Receptor source: E. coli extracted from cells expressing biotinylated hLXRβ. Extract was made in a similar buffer as above, but with 50 mM TRIS.
Washed streptavidin and coated flash plates with wash buffer. Diluted receptor extract to give Bmax ˜4000 cpm and add to the wells. Wrapped the plates in aluminum foil and stored them at +4° C. overnight.
as §1
Aspirated wells, and washed the flashed plates. Sealed the plate. Measured the remaining radioactivity in the plate.

Row | IC50 (human LXRα) | IC50 (human LXRβ) | Structure (SMILES)
1 | 2670 nM | 235 nM | Cc1nc2c(C(F)(F)F)cccc2n1-c1ccc(Oc2cc(F)cc(S(C)(=O)=O)c2)cc1Cl [Example 103, 1-{2-chloro-4-[3-fluoro-5-(methylsulfonyl)phenoxy]phenyl}-2-methyl-4-(trifluoromethyl)-1H-benzimidazole]
2 | 6110 nM | 634 nM | CCS(=O)(=O)c1cccc(Oc2ccc(-n3cnc4c(C(F)(F)F)cccc43)c(C)c2)c1 [Example 91, 1-{4-[3-(ethylsulfonyl)phenoxy]-2-methylphenyl}-4-(trifluoromethyl)-1H-benzimidazole]
3 | 6530 nM | 802 nM | Cc1cc(Oc2cccc(S(C)(=O)=O)c2)ccc1-n1cnc2c(C(F)(F)F)cccc21 [Example 90, 1-{2-methyl-4-[3-(methylsulfonyl)phenoxy]phenyl}-4-(trifluoromethyl)-1H-benzimidazole]
4 | 4840 nM | 945 nM | Cc1nc2c(C(F)(F)F)cccc2n1-c1cccc(Oc2ccc(S(=O)(=O)CCCO)cc2)c1 [Example 15, 3-[(4-{3-[2-methyl-4-(trifluoromethyl)-1H-benzimidazol-1-yl]phenoxy}phenyl)sulfonyl]propan-1-ol]
5 | 746 nM | 170 nM | Cc1nc2c(Cl)cccc2n1-c1cccc(Oc2ccccc2S(C)(=O)=O)c1 [Example 50, 4-chloro-2-methyl-1-{3-[2-(methylsulfonyl)phenoxy]phenyl}-1H-benzimidazole]
6 | > 1000 nM | 1900 nM | Cc1nc2c(C(F)(F)F)cccc2n1-c1cccc(Oc2ccccc2S(=O)(=O)CCCO)c1 [Example 13, 3-[(2-{3-[2-methyl-4-(trifluoromethyl)-1H-benzimidazol-1-yl]phenoxy}phenyl)sulfonyl]propan-1-ol]
7 | 15100 nM | 1920 nM | CCc1nc2c(C(F)(F)F)cccc2n1-c1ccc(Oc2ccc(C#N)c(S(C)(=O)=O)c2)cc1 [Example 88, 4-{4-[2-ethyl-4-(trifluoromethyl)-1H-benzimidazol-1-yl]phenoxy}-2-(methylsulfonyl)benzonitrile]
8 | 258 nM | 20 nM | Cc1nc2c(Cl)cccc2n1-c1cccc(Oc2cccc(S(=O)(=O)CCC(C)C)c2)c1 [Example 53]
9 | 16000 nM | 2620 nM | Cc1cc(Oc2cc(F)cc(S(C)(=O)=O)c2)ccc1-n1cnc2c(C(F)(F)F)cccc21 [Example 96, 1-{4-[3-fluoro-5-(methylsulfonyl)phenoxy]-2-methylphenyl}-4-(trifluoromethyl)-1H-benzimidazole]
10 | 3000 nM | 357 nM | Cc1nc2c(Cl)cccc2n1-c1cc(Oc2ccc(S(C)(=O)=O)cc2)ccc1Cl [Example 61, 4-chloro-1-{2-chloro-5-[4-(methylsulfonyl)phenoxy]phenyl}-2-methyl-1H-benzimidazole]
11 | 812 nM | 65 nM | CCS(=O)(=O)c1ccc(Oc2ccc(Cl)c(-n3c(C)nc4c(Cl)cccc43)c2)cc1 [Example 62, 4-chloro-1-{2-chloro-5-[4-(ethylsulfonyl)phenoxy]phenyl}-2-methyl-1H-benzimidazole]
12 | 85 nM | 17 nM | CCS(=O)(=O)c1ccc(Oc2cccc(-n3c(C)nc4c(Cl)cccc43)c2)cc1 [Example 49, 4-chloro-1-{3-[4-(ethylsulfonyl)phenoxy]phenyl}-2-methyl-1H-benzimidazole]
13 | 4830 nM | 405 nM | Cc1cc(Oc2cc(F)cc(S(C)(=O)=O)c2)ccc1-n1c(C)nc2c(C(F)(F)F)cccc21 [Example 101, 1-{4-[3-fluoro-5-(methylsulfonyl)phenoxy]-2-methylphenyl}-2-methyl-4-(trifluoromethyl)-1H-benzimidazole]
14 | 36 nM | 3.6 nM | Cc1nc2c(Cl)cccc2n1-c1cccc(Oc2cc(Cl)cc(S(C)(=O)=O)c2)c1 [Example 46, 4-chloro-1-{3-[3-chloro-5-(methylsulfonyl)phenoxy]phenyl}-2-methyl-1H-benzimidazole]
